Reference: US8829185B2 (Bayer HealthCare LLC, priority 2005, dated 2014)

Legend:
FGFR1-GST = target: T1, FGFR1-GST (Homo sapiens, UniProt P11362); experiment: FGFR-1 TR-FRET biochemical assay; details: bounds given in nM
T1 construct: GST; made in house
Procedure, shortened: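 LANCE TR-FRET with 5 nM FGFR1-GST, 0.6 uM ATP, 25 nM biotin-poly GT in HEPES pH 7.5/MgCl2, 1% DMSO; compound added before enzyme, 1 h at room temperature. 665/615 nm ratio, background without ATP; % inhibition over 10 μM–0.128 nM final for IC50.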

[1] = tested on: histone 3 phosphorylation in colon carcinoma (HCT116); experiment: p-Histone3 assay; assay type: cell-based; details: Homo sapiens, HCT-116, 24 h, HCT116, 24 hours treatment
Experimental: Compounds were assayed for the inhibition of histone 3 phosphorylation in colon carcinoma (HCT116). Briefly, 20,000 cells/well were seeded in a 96-well black-walled, poly-d-lysine plates in RPMI+10% FBS and incubated at 37° C. in 5% CO2 overnight. The following day, the cells were treated with compounds for 24 hours at 37° C. Following compound treatment; plates were centrifuged at 1000 rpm for 2 minutes and washed twice with 100 μl of cold sterile TBS. Cells were then fixed with cold 3.7% formaldehyde in TBS (4° C. for 1 hour) and then permeabalized with 0.1% Triton-X-100 in TBS (room temperature for 30 minutes). Plates were then washed with of 0.25% BSA-TBS and blocked with BSA solution for 1 hour at room temperature while shaking. The supernatant was removed and replaced with diluted primary antibody (anti-phospho-histone 3, serine 10, Cell Signaling) at 1:250 in 0.25% BSA-TBS and incubated overnight at 4° C. The plates were washed and treated with diluted secondary antibody (anti-rabbit Eu-labeled) at 1:10000 in 0.25% BSA-TBS (room temperature for 1 hour). The antibody solution was removed from each well and washed eight times. The wash buffer was replaced with 50 μl pre-warmed enhancement solution and mixed on the orbital shaker for 10 minutes. Fluorescence was detected with a Victor V Fluorescence Detector. The data are expressed as percent inhibition: % inhibition=100−((Signal with inhibitor-background)/(Signal without inhibitor-background))×100.

HCT116 cells = experiment: Tumor cell proliferation (Alamar Blue), HCT116; assay type: cell-based; details: Homo sapiens, HCT-116, 72 h, HCT116, 72 h
Experimental: (§1) Human tumor cells (e.g., HCT116 or MDA-MB-231 cells), were seeded in a Costar 96-well plate at 3.0×10^3 cells/well and grown in 150 μl of RPMI complete media (Invitrogen Corporation, Grand Island, N.Y.) containing 10% fetal bovine serum (Hyclone, Logan, Utah) at 37° C. for 16 h in an incubator with 5% CO2. To each well, 50 μl of additional growth media containing 40 μM to 18 nM concentrations of compound with 0.4% DMSO was added. Cells were grown for another 72 h at 37° C. with 5% CO2. 20 μl of Alamar Blue (Trek Diagnostic Systems, Inc., Cleveland, Ohio) reagent was added to each well and incubated for 3 h at 37° C. Plates were read in a SpectraMax Gemini (Molecular Devices, CA) with 544 nm excitation and 590 nm emission wavelength. IC50 values were determined by linear regression analysis of log drug concentration versus percent inhibition.

MDA-MB-231 cells = experiment: Tumor cell proliferation (Alamar Blue), MDA-MB-231; assay type: cell-based; details: Homo sapiens, MDA-MB-231, 72 h
Experimental: as §1

T1 sequence (P11362 22-822): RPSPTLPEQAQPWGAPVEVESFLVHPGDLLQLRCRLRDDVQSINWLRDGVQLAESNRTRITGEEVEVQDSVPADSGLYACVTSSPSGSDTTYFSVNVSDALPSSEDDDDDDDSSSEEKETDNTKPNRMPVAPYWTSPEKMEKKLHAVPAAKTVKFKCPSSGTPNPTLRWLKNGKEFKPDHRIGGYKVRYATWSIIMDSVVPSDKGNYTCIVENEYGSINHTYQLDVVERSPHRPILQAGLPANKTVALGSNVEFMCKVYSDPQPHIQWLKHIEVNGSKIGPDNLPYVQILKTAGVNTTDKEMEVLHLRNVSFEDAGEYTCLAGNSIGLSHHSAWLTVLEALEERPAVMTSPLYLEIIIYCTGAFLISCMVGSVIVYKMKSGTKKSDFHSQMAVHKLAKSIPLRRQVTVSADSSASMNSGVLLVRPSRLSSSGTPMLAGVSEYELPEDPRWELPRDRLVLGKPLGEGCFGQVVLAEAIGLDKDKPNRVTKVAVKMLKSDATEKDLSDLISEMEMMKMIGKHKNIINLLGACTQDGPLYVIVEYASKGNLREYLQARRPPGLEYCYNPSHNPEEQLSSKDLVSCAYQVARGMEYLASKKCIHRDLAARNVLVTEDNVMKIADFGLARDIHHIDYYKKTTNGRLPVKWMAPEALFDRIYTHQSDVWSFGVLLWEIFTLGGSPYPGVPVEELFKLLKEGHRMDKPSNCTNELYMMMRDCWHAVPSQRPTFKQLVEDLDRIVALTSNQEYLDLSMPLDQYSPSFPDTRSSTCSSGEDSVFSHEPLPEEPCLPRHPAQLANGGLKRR

| Structure (SMILES) | IC50 (FGFR1-GST) [nM] | IC50 ([1]; bounds given in μM) [µM] | IC50 ([1]; lower bound in nM) [µM] | IC50 (HCT116 cells; lower bound in nM) [nM] | IC50 (HCT116 cells; upper bound given in μM) [nM] | IC50 (MDA-MB-231 cells; lower bound in nM) [nM] | IC50 (MDA-MB-231 cells; upper bound given in μM) [nM] |
| --- | --- | --- | --- | --- | --- | --- | --- |
| Nc1ncnn2c(CN3CCOCC3)c(-c3cnco3)c(-c3ccc(NC(=O)Nc4cc(C(F)(F)F)ccn4)c(F)c3)c12 [Example 33, N-4-[4-amino-7-(morpholin-4-ylmethyl)-6-(1,3-oxazol-5-yl)pyrrolo[2,1-f][1,2,4]triazin-5-yl]-2-fluorophenyl-N′-[4-(trifluoromethyl)pyridin-2-yl]urea] | < 10 | 5 to 10 |  |  |  |  |  |
| CN(C)Cc1c(C(=O)NCC(F)(F)F)c(-c2ccc(NC(=O)Nc3cccc(C(F)(F)F)n3)cc2)c2c(N)ncnn12 [Example 53, 4-amino-7-[(dimethylamino)methyl]-N-(2,2,2-trifluoroethyl)-5-{-4-[({[6-(trifluoromethyl)-pyridin-2-yl]amino}carbonyl)-amino]phenyl}pyrrolo[2,1-f][1,2,4]triazine-6-carboxamide] |  | < 5 | > 0.5 |  |  |  |  |
| COCc1c(-c2ccc(NC(=O)Nc3cc(C(F)(F)F)ccc3F)cc2)c2c(N)ncnn2c1CO [Example 23, N-{4-[4-amino-7-(hydroxymethyl)-6-(methoxymethyl)-pyrrolo[2,1-f][1,2,4]triazin-5-yl]phenyl}-N′-[2-fluoro-5-(trifluoromethyl)-phenyl]urea] | 10 to 100 |  |  | > 500 | < 4000 | > 500 | < 5000 |
| Nc1ncnn2c(CN3CCOCC3)c(CO)c(-c3ccc(NC(=O)Nc4cc(C(F)(F)F)ccn4)cc3)c12 [Example 62, N-{4-[4-amino-6-(hydroxymethyl)-7-(morpholin-4-ylmethyl)pyrrolo[2,1-f][1,2,4]triazin-5-yl]phenyl}-N′-[4-(trifluoromethyl)-pyridin-2-yl]urea] | 10 to 100 | 5 to 10 |  |  |  |  |  |
| Cc1c(-c2ccc(NC(=O)Nc3cc(C(F)(F)F)ccc3F)cc2)c2c(N)ncnn2c1CN1CCOCC1 [Example 111, N-{4-[4-amino-6-methyl-7-(morpholin-4-ylmethyl)pyrrolo[2,1-f][1,2,4]triazin-5-yl]phenyl}-N′-[2-fluoro-5-(trifluoromethyl)phenyl]urea] | < 10 | < 5 | > 0.5 |  |  |  |  |
| N#CCc1c(-c2ccc(NC(=O)Nc3cc(C(F)(F)F)ccc3F)c(F)c2)c2c(N)ncnn2c1CN1CCOCC1 [Example 69, N-{4-[4-amino-6-(cyanomethyl)-7-(morpholin-4-ylmethyl)-pyrrolo[2,1-f][1,2,4]triazin-5-yl]-2-fluorophenyl}-N′-[2-fluoro-5-(trifluoromethyl)phenyl]urea] | < 10 | < 5 | > 0.5 |  |  |  |  |
| Nc1ncnn2c(CN3CCOCC3)c(CO)c(-c3ccc(NC(=O)Nc4cc(C(F)(F)F)ccc4F)cc3)c12 [Example 34, N-4-[4-amino-6-(hydroxymethyl)-7-(morpholin-4-ylmethyl)-pyrrolo[2,1-f][1,2,4]triazin-5-yl]phenyl-N′-[2-fluoro-5-(trifluoromethyl)-phenyl]urea] | 10 to 100 | < 5 | > 0.5 |  |  |  |  |
| N#Cc1c(C(=O)NCC(F)(F)F)c(-c2ccc(NC(=O)Nc3cc(C(F)(F)F)ccn3)cc2)c2c(N)ncnn12 [Example 7, 4-amino-7-cyano-N-(2,2,2-trifluoroethyl)-5-{4-[({[4-(trifluoromethyl)pyridin-2-yl]amino}carbonyl)-amino]phenyl}pyrrolo[2,1-f][1,2,4]triazine-6-carboxamide] | 10 to 100 | < 5 | > 0.5 | > 500 | < 4000 | > 500 | < 5000 |
| COCc1c(-c2ccc(NC(=O)Nc3cc(C(F)(F)F)ccc3F)cc2)c2c(N)ncnn2c1CN1CCN(C)CC1 [Example 13, N-(4-{4-amino-6-(methoxymethyl)-7-[(4-methylpiperazin-1-yl)methyl]pyrrolo[2,1-f][1,2,4]triazin-5-yl}phenyl)-N′-[2-fluoro-5-(trifluoro-methyl)phenyl]urea] | 10 to 100 | < 5 | > 0.5 | > 500 | < 4000 | > 500 | < 5000 |
| N#Cc1c(-c2ccc(NC(=O)Nc3cc(C(F)(F)F)ccc3F)cc2)c2c(N)ncnn2c1CN1CCOCC1 [Example 54, N-4-[4-amino-6-cyano-7-(morpholin-4-ylmethyl)pyrrolo[2,1-f][1,2,4]triazin-5-yl]phenyl-N′-[2-fluoro-5-(trifluoromethyl)phenyl]urea] | < 10 | < 5 | > 0.5 |  |  |  |  |
| COCc1c(-c2ccc(NC(=O)Nc3cc(C(F)(F)F)ccc3F)cc2)c2c(N)ncnn2c1CN1CCN(S(C)(=O)=O)CC1 [Example 20, N-[4-(4-amino-6-(methoxymethyl)-7-{[4-(methylsulfonyl)piperazin-1-yl]methyl}pyrrolo[2,1-f][1,2,4]triazin-5-yl)phenyl]-N′-[2-fluoro-5-(trifluoromethyl)phenyl]urea] | 10 to 100 | 5 to 10 |  |  |  |  |  |
| COCc1c(-c2ccc(NC(=O)Nc3cc(C(F)(F)F)ccc3F)cc2)c2c(N)ncnn2c1CN1CCOCC1 [Example 12, N-{4-[4-amino-6-(methoxymethyl)-7-(morpholin-4-ylmethyl)pyrrolo[2,1-f][1,2,4]triazin-5-yl]phenyl}-N′-[2-fluoro-5-(trifluoromethyl)phenyl]urea] | < 10 | 5 to 10 |  | > 500 | < 4000 | > 500 | < 5000 |
| CN1CCN(Cc2c(C(=O)NCC(F)(F)F)c(-c3ccc(NC(=O)Nc4cc(C(F)(F)F)ccc4F)cc3)c3c(N)ncnn23)CC1 [Example 10, 4-amino-5-{4-[({[2-fluoro-5-(trifluoromethyl)-phenyl]amino}carbonyl)amino]phenyl}-7-[(4-methylpiperazin-1-yl)methyl]-N-(2,2,2-trifluoroethyl)pyrrolo[2,1-f][1,2,4]triazine-6-carboxamide] | < 10 | < 5 | > 0.5 |  |  |  |  |
| Nc1ncnn2c(CN3CCOCC3)c(C(=O)NCC(F)(F)F)c(-c3ccc(NC(=O)Nc4cc(C(F)(F)F)ccc4F)cc3)c12 [Example 9, 4-amino-5-{4-[({[2-fluoro-5-(trifluoromethyl)-phenyl]amino}carbonyl)amino]phenyl}-7-(morpholin-4-ylmethyl)-N-(2,2,2-trifluoroethyl)pyrrolo[2,1-f][1,2,4]triazine-6-carboxamide] | < 10 | < 5 | > 0.5 |  |  |  |  |
| COCc1c(-c2ccc(NC(=O)Nc3cc(C(F)(F)F)ccc3F)cc2)c2c(N)ncnn2c1C(C)O (centres unmarked) [Example 25, N-{4-[4-amino-7-(1-hydroxyethyl)-6-(methoxymethyl)pyrrolo[2,1-f][1,2,4]triazin-5-yl]phenyl}-N′-[2-fluoro-5-(trifluoromethyl)phenyl]urea] |  |  |  | > 500 | < 4000 |  |  |
